Results from publication PMC11922054 (Science Advances, 2025).
Ends that are not written are not given here.

Key:
[1] = test system: S. cohnii L5; assay: MIC, broth microdilution; format: cell-based, Staphylococcus cohnii; conditions: for MICs of derivatives: strain not named in the sentence (table S6: S. cohnii L5 and E. coli)
[2] = test system: sheep red blood cells (RBCs); assay: Hemolytic activity; format: cell-based; conditions: 0 to 512 μM, 37°C, 1 hour
[3] = test system: S. cohnii L5; assay: Mouse skin wound infection model; format: in vivo; conditions: 10 days; NCBP1 8 mg/kg
[4] = test system: BALB/c mice; assay: In vivo toxicity experiments; set-up: species or system mouse; conditions: after 5 days; intraperitoneal, highest dose 150 mg/kg; n = 5
[5] = test system: H9c2 cells; assay: Cytotoxicity, WST-1 assay; format: cell-based, rat; conditions: up to 512 μM, 24 hours
[6] = test system: HEp-2 cells; assay: Cytotoxicity, WST-1 assay; format: cell-based, human; conditions: up to 512 μM, 24 hours
[7] = test system: A549 cells; assay: Cytotoxicity, WST-1 assay; format: cell-based; conditions: up to 512 μM, 24 hours
[8] = pH stability; format: physicochemical; conditions: pH 2 to 12 for 1 and 2 hours, 37°C; read-out activity on S. cohnii L5
[9] = test system: Vero cells; assay: Cytotoxicity, WST-1 assay; format: cell-based, African green monkey; conditions: up to 512 μM, 24 hours

Sequence: APWLRVALCPG [NCBP1a]
- MICs of derivatives [1]: > 512 µM

Sequence: KPWLAVALCPG [NCBP1b]
- MICs of derivatives [1]: > 512 µM

Sequence: KPWLRVALCPG [NCBP1]
- hemolytic activity [2]: no noticeable hemolytic activity
- growth of the mice, body weight [3]: did not affect the normal growth
- survival rate of mice [4]: 100%
- toxicity toward cells [5]: negligible toxicity
- MIC ([1]; S. cohnii L5, broth microdilution, 18 h, 37°C): 16 µM
- toxicity toward cells [6]: negligible toxicity
- toxicity toward cells [7]: negligible toxicity
- pH stability [8]: resistant to a wide range of pH values
- toxicity toward cells [9]: negligible toxicity
